Changes are numbered by the printed parent chain.
Key:
GCase = biological target: T1, GCase (Homo sapiens, UniProt P04062); assay: GCase activity in conditioned media of COS-7 cells transfected with human GBA1 plasmid, 72 h; assay type: cell-based; conditions: 72 hours expression
T1 construct: expressed in transfected cells; host or cells: COS-7
T1 sequence (P04062 40-536): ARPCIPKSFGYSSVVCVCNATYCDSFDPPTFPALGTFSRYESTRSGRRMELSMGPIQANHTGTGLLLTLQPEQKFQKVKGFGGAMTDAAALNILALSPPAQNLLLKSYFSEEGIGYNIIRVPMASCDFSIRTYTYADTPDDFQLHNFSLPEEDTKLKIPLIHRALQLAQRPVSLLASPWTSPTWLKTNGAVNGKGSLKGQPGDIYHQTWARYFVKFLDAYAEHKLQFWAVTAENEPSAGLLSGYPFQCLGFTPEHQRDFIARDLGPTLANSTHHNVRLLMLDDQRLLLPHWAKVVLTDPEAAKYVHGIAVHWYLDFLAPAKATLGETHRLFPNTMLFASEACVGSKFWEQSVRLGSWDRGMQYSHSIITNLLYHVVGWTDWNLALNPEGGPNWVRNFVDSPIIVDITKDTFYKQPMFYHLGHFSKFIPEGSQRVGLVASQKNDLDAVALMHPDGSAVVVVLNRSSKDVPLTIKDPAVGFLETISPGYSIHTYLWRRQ

α-Gal A [1] = biological target: T2, α-Gal A (Homo sapiens, UniProt P06280); assay: α-Gal A activity in conditioned media of COS-7 cells transfected with GLA plasmid, 72 h; assay type: cell-based; conditions: 72 hours expression
T2 construct: expressed in transfected cells; host or cells: COS-7
T2 sequence (P06280 32-429): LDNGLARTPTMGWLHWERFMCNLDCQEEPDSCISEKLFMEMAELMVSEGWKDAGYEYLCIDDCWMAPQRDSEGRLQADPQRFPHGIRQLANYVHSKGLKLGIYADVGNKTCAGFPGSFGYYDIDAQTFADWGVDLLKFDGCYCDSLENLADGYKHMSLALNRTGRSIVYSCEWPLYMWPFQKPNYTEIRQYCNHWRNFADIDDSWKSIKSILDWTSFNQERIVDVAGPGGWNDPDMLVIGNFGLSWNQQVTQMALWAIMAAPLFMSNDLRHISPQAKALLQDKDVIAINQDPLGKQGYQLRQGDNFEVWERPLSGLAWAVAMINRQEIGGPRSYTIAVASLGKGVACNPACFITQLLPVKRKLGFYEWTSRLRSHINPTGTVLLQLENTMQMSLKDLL
Description: COS-7 cells were transiently transfected with empty vector or a plasmid coding for the α-Gal A gene (GLA). […] After 72-hours of protein expression, the conditioned media from each transfection was harvested, and the level of α-Gal A activity was assessed using the substrate […].

α-Gal A (Fabrazyme®) = biological target: T3, α-Gal A (Fabrazyme®) (Homo sapiens, UniProt P06280); assay: SYPRO Orange thermal stability assay (heat denaturation) of α-Gal A; assay type: binding; conditions: 10 and 100 μM DGJ, pH 7.4
T3 construct: purchased
T3 sequence (P06280 32-429): T2 sequence (P06280 32-429)

α-Gal A [2] = biological target: T2, α-Gal A; assay: SYPRO Orange α-Gal A denaturation over time at 37° C.; assay type: binding; conditions: 50 μM DGJ added at 3 or 6 hours, pH 7.4, 37° C.
α-Gal A [3] = biological target: T2, α-Gal A; assay: α-Gal A activity in conditioned media of transiently transfected COS-7 cells, 48 h, concanavalin A capture; assay type: cell-based; conditions: 100 μM chaperone, 48 hours expression
α-Glucosidase (GAA) = biological target: T4, α-Glucosidase (GAA) (Homo sapiens, UniProt P10253); assay: GAA activity in conditioned media of COS-7 cells transfected with human GAA plasmid, 72 h; assay type: cell-based; conditions: 72 hours expression
T4 construct: expressed in transfected cells; host or cells: COS-7

[4] = biological target: T5, recombinant human GAA (Myozyme®) (Homo sapiens, UniProt P10253); assay: Residual GAA enzyme activity (4-MU-α-glucose) on extended incubation at 37° C.; assay type: biochemical; conditions: 50 μM 1-DNJ, pH 7.4, 37° C., over 24 hours
T5 construct: purchased Genzyme Corp
Description: FIG. 2A depicts the effects of 1-DNJ-HCl on recombinant human GAA (rhGAA; Myozyme®, Genzyme Corp.) activity at neutral pH (7.4) or lysosomal pH (5.2) at 37° C. GAA activity was evaluated to assess the ability of an ASSC to prolong the activity of rhGAA over time. Myozyme (45 nM) was incubated in pH 7.4 or pH 5.2 buffer with or without 50 μM 1-DNJ at 37° C. over 24 hours. Samples were assayed for GAA enzyme activity using 4-MU-α-glucose at 0, 3, 6 and 24 hours and the residual GAA activity was expressed as % of initial activity.
Residual GAA activity was determined for four formulations:
Activity was measured, based on the % of initial activity (t=0) over 24 hours. Samples were assayed for GAA enzyme activity based on the hydrolysis of the fluorogenic substrate 4-MU-α-glucose at 0, 3, 6 and 24 hours. The GAA activity was expressed as % of initial activity, i.e. residual activity.

[5] = biological target: T5, recombinant human GAA (Myozyme®); assay: SYPRO Orange GAA unfolding over time at 37° C.; assay type: binding; conditions: 50 μM DNJ added at 3 or 6 hours, pH 7.4, 37° C.
[6] = biological target: T5, recombinant human GAA (Myozyme®); assay: SYPRO Orange thermal stability assay (heat denaturation) of GAA; assay type: binding
Excerpt: The thermal stability assay utilizes heat to induce protein denaturation, which is monitored using a SYPRO Orange dye that fluoresces upon binding to hydrophobic amino acids (which are not exposed in a folded protein).
FIG. 3 depicts the results of a thermal stability assay that utilizes heat to induce protein denaturation, which is monitored using a SYPRO Orange dye that fluoresces upon binding to hydrophobic amino acids (which are not exposed in a folded protein). […] The experiment was conducted at pH 7.4.
Denaturation is monitored using a SYPRO Orange dye that fluoresces upon binding to hydrophobic amino acids (which are not exposed in a folded protein).
The thermal stability was performed at pH 7.4 for two formulations, which corresponds to the pH of the ER.
A thermal stability experiment as generally described in Example 1 was performed on four compositions: […]

acid β-glucosidase = biological target: T6, acid β-glucosidase (Homo sapiens, UniProt P04062); conditions: 100 μM chaperone, 48 hours expression, COS-7
T6 sequence (P04062 40-536): T1 sequence (P04062 40-536)

GCase (Cerezyme®) [7] = biological target: T7, GCase (Cerezyme®) (Homo sapiens, UniProt P04062, R534H); assay: GCase activity in human plasma at 37° C. (4-MUG); assay type: in vitro ADME; conditions: IFG 3 μM, 30 μM, 100 μM, over 4 hours
T7 construct: purchased Genzyme Corp
T7 sequence (P04062 40-536 R534H): T1 sequence (P04062 40-536) with R495H
Description: FIG. 10 depicts the effects of IFG on recombinant human GCase (GCase; Cerezyme®, Genzyme Corp.) activity in human plasma at 37° C. GCase activity was evaluated to assess the ability of an ASSC to prolong the activity of GCase in human plasma over time. Cerezyme (0.5 μM) was incubated in human plasma with increasing concentrations of IFG (3 μM, 30 μM, or 100 μM) at 37° C. over 4 hours. Samples were assayed for GCase enzyme activity using 4-MU-β-glucose at 0.25, 0.5, 1, 2 and 4 hours and the residual GCase activity was expressed as % of initial activity.
The activity of GCase (0.5 μM; Cerazyme®) at 37° C. in human plasma was assessed for increasing concentrations of IFG (3 μM, 30 μM, and 100 μM) as a function time using the substrate 4-MUG.

[8] = biological target: T8, acid β-glucosidase (GCase; Cerezyme®) (Homo sapiens, UniProt P04062, R534H); assay: SYPRO Orange thermal stability assay (heat denaturation) of GCase; assay type: binding
T8 construct: purchased Genzyme Corp
T8 sequence (P04062 40-536 R534H): T1 sequence (P04062 40-536) with R495H
Description: FIG. 4 depicts the results of a thermal stability assay that utilizes heat to induce protein denaturation, which is monitored using a SYPRO Orange dye that fluoresces upon binding to hydrophobic amino acids (which are not exposed in a folded protein). Isofagomine increases acid β-glucosidase thermostability as evident by increases in melting temperature in a dose-dependent manner. The experiment was conducted at pH 7.4.
FIG. 8 depicts the stability of recombinant human GCase (Cerazyme®, Genzyme Corp.) at neutral pH (7.4) or acidic pH (5.2) in the presence or absence of 10 μM of IFG as determined in a thermal stability assay. The thermal stability assay utilizes heat to induce protein denaturation, which is monitored using a SYPRO Orange dye that fluoresces upon binding to hydrophobic amino acids (which are not exposed in a folded protein).
A thermal stability experiment as generally described in Example 1 was performed on three compositions of GCase (Cerezyme®):
A thermal stability experiment as generally described in Examples 1 and 4 was performed on three compositions of GCase (Cerezyme®):
Protein denaturation was monitored using SYPRO Orange dye which fluoresces when bound to exposed hydrophobic amino acids.

[9] = biological target: T8, acid β-glucosidase (GCase; Cerezyme®); assay: SYPRO Orange GCase unfolding over time at 37° C.; assay type: binding
Description: FIG. 5 depicts a SYPRO Orange thermal stability experiment to monitor the unfolding of acid β-glucosidase (GCase; Cerezyme®). GCase (2 μM) was incubated in pH 7.4 or pH 5.2 buffer with or without 10 μM IFG at 37° C. and protein unfolding was monitored every hour over 24 hours.
FIG. 9 depicts a SYPRO Orange thermal stability experiment to monitor the unfolding of acid β-glucosidase (GCase; Cerezyme®). GCase was incubated in pH 7.4 or pH 5.2 buffer with or without 10 μM or 100 μM IFG at 37° C., and protein unfolding was monitored every hour over 24 hours.
FIG. 15 depicts that addition of 50 μM IFG at 3 or 6 hours after incubation of GCase (Cerezyme®) in neutral (pH 7.4) buffer at 37° C. prevents further denaturation of the enzyme as measured by SYPRO dye fluorescence.
In this thermal stability experiment, the concentration of IFG was 10 μM in formulation (3).
In this thermal stability experiment, the concentration of IFG was 0, 10 μM, or 100 μM as described above.
The stability of α-Gal A, α-Glucosidase (GAA), and GCase (Cerezyme®) at 37° C. in neutral (pH 7.4) buffer was measured using the SYPRO Orange for 3, 6 or 24 hours.

GCase (Cerezyme®) [10] = biological target: T7, GCase (Cerezyme®); assay: GCase activity over time in neutral or acidic buffer at 37° C. (4-MUG); assay type: biochemical; conditions: 1 μM IFG, 10 nM GCase, pH 7.4, 37° C.

Molecule: O[C@H]1[C@H](O)CNC[C@@H]1C(F)F [AT3375]
- GCase activity recovered from conditioned media (GCase): increased the activity
- α-Gal A activity from conditioned media (α-Gal A [1]): increased slightly

Molecule: OC[C@H]1NC[C@H](O)[C@@H](O)[C@H]1O [DGJ, 1-deoxygalactonorjirimycin]
- α-Gal A thermal stability (melting temperature) (α-Gal A (Fabrazyme®)): increases α-Gal A thermal stability in a dose-dependent manner
- Further denaturation of α-Gal A (α-Gal A [2]): prevented further denaturation
- α-Gal A activity from conditioned media (α-Gal A [1]): increased slightly
- α-Gal A activity from conditioned media (α-Gal A [3]): increased the activities

Molecule: OC[C@H]1NC[C@H](O)[C@@H](O)[C@@H]1O [DNJ, 1-deoxynorjirimycin]
- GAA activity recovered from conditioned media (α-Glucosidase (GAA)): little effect
- Effect on loss of GAA enzyme activity [4]: ameliorates the loss of GAA enzyme activity
- Further denaturation of GAA [5]: prevented further denaturation
- GAA thermal stability (heat required to denature) ([6]; 100 μM DNJ, pH 7.4, versus formulation without ASSC): required significantly more heat to denature
- GAA thermostability (melting temperature) ([6]; 1, 10, 100 μM 1-DNJ-HCl, pH 7.4, dose-dependent): increases GAA thermostability

Molecule: OC[C@H]1CNC[C@@H](O)[C@@H]1O [IFG, (3R,4R,5R)-5-(hydroxymethyl)-3,4-piperidinediol]
- Acid β-glucosidase activity from conditioned media (acid β-glucosidase): increased the activities
- Stability of GCase activity in human plasma (GCase (Cerezyme®) [7]): significantly increases the stability of GCase and prevents enzyme inactivation
- Stability of recombinant human GCase upon thermal challenge ([8]; 10 μM IFG, pH 7.4 (Example 8)): significantly increases stability
- GCase thermal stability (melting temperature) ([8]; 10 and 100 μM IFG, pH 7.4): increases GCase thermal stability in a dose-dependent manner
- GCase activity recovered from conditioned media (GCase): increased the activity
- GCase unfolding ([9]; 10 μM IFG, pH 7.4, 37° C., over 24 hours (Example 5)): prevented GCase unfolding
- Stability of GCase (unfolding over time) ([9]; 10 μM and 100 μM IFG, neutral pH, 37° C. (Example 9)): significantly increases the stability
- Further denaturation of GCase ([9]; 50 μM IFG added at 3 or 6 hours, pH 7.4, 37° C.): prevented further denaturation
- Stability of GCase activity over time (GCase (Cerezyme®) [10]): significantly increases the stability

Molecule: Myozyme: recombinant human GAA (Myozyme®, Genzyme Corp.)
- Stability of Myozyme at lysosomal versus neutral pH (thermal stability assay) ([6]; pH 5.2 versus pH 7.4, no chaperone): much more stable at lysosomal pH (5.2) than at neutral pH (7.4)

— US9206457B2, “Utilization of pharmacological chaperones to improve manufacturing and purification of biologics” (Amicus Therapeutics, Inc., priority 2009, dated 2015)
